# From patent US9604984B2, “5-chloro-2-difluoromethoxyphenyl pyrazolopyrimidine compounds, compositions and methods of use thereof” (Genentech, Inc., priority 2014, dated 2017)
# How the values were obtained:
# [1] = molecular target: isolated recombinant JAK2 kinase domain (Homo sapiens (Human), UniProt O60674); test: JAK2 enzyme assay (Caliper LabChip, peptide phosphorylation); type: biochemical; details: 25 μM ATP
# Protocol: (§1) JAK Enzyme Assays were carried out as follows:
# (§2) The activity of the isolated recombinant JAK1 and JAK2 kinase domain was measured by monitoring phosphorylation of a peptide derived from JAK3 ([…] fluorescently labeled on the N-terminus with 5-carboxyfluorescein) using the Caliper LabChip® technology (Caliper Life Sciences, Hopkinton, Mass.). […] Reactions were incubated at 22° C. in 384-well polypropylene microtiter plates for 30 minutes and then stopped by addition of 25 μL of an EDTA containing solution (100 mM HEPES buffer (pH 7.2), 0.015% Brij-35, 150 mM EDTA), resulting in a final EDTA concentration of 50 mM. After termination of the kinase reaction, the proportion of phosphorylated product was determined as a fraction of total peptide substrate using the Caliper LabChip® 3000 according to the manufacturer's specifications.
# [2] = molecular target: isolated recombinant JAK1 kinase domain (Homo sapiens (Human), UniProt P23458); test: JAK1 enzyme assay (Caliper LabChip, peptide phosphorylation); type: biochemical; details: 25 μM ATP
# Chain of isolated recombinant JAK1 kinase domain (P23458 875-1153): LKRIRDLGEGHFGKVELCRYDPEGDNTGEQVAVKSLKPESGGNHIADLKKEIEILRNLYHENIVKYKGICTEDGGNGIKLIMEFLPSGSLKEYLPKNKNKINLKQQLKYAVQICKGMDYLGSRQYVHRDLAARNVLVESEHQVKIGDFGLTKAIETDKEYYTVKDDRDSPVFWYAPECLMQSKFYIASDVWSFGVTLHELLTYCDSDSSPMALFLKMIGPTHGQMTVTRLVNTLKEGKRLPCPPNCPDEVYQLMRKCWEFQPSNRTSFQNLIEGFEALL
# Protocol: as §1, §2
# [3] = Clearance assay: mouse intravenous (IV) clearance; type: in vivo; details: female BALB/c mice, single IV dose of 1 mg/kg
# Excerpt: In certain instances high systemic clearance of a drug substance may be of benefit. For example, in the treatment of pulmonary diseases it may be beneficial to have high drug concentrations in the lung, with lower concentrations in the bloodstream or peripheral organs. In such cases, it may be advantageous to administer a drug substance with high systemic clearance via the inhaled delivery route. This approach may maximize pharmacologic activity of the drug substance in the lung while minimizing the possibility of on-target toxicity elsewhere in the body. The functional groups appended to the 5-chloro-2-difluoromethoxyphenyl pyrazolopyrimidine scaffold affect systemic clearance.
# Female BALB/c mice were obtained from Charles River Labs (Hollister, Calif. USA). Twelve animals were given a single IV dose of 1 mg/kg of compounds via the tail vein. A representative dose solution was prepared as follows: the compound was dissolved in a mixture of 5% dimethylsulfoxide (DMSO), 35% polyethylene glycol (PEG 400), and 60% water (v/v/v), respectively, and administered at a dosing volume of 5 mL/kg. Mice weighed approximately 20-25 g at the start of the study. […] PK data analysis was performed on mean plasma concentration-time data and PK parameters were determined by non compartmental methods using WinNonlin® Enterprise, version 5.2.1 (Pharsight Corporation; Mountain View, Calif.).
# Chain of isolated recombinant JAK2 kinase domain (O60674 849-1124): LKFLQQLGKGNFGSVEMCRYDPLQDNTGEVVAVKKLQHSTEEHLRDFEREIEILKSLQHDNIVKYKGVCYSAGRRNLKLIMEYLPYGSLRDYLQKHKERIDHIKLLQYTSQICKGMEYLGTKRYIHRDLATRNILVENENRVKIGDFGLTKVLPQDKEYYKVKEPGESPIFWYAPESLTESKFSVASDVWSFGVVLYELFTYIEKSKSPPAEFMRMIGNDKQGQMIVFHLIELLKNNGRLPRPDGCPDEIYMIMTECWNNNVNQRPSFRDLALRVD
Ki [1],Ki [2],mouse IV clearance as % of mouse liver blood flow [3],SMILES
1.64 nM,0.6 nM,–,"CNC(=O)[C@@H]1CCCN1CC1CCN(C(=O)Cn2cc(NC(=O)c3cnn4cccnc34)c(-c3cc(Cl)ccc3OC(F)F)n2)CC1 [Example 425, N-(3-(5-chloro-2-(difluoromethoxy)phenyl)-1-(2-(4-(((S)-2-(methylcarbamoyl)pyrrolidin-1-yl)methyl)piperidin-1-yl)-2-oxoethyl)-1H-pyrazol-4-yl)pyrazolo[1,5-a]pyrimidine-3-carboxamide]"
–,–,6 % of mouse liver blood flow,CC(C)(O)Cn1cc(NC(=O)c2cnn3cccnc23)c(-c2cc(Cl)ccc2OC(F)F)n1 [compound i]
